Laboratory results reported in a melting point compilation (Tetko et al.; mined from patent text by program, amines drawn as free bases though some values may be those of a salt).

First: CSc1ccccc1-n1ncc(-c2ccc(S(C)(=O)=O)cc2)c(-c2ccc(F)cc2)c1=O
Second: O=C(Nc1ccc2c(c1)CCC(CCN1CCCC1)=C2)c1ccc(-c2ccc(F)cc2)cc1
The melting point of the first is higher: 206 to 208 °C for the first, 187 to 189 °C for the second.

First: CC(C)n1nc(-c2c(-c3ccccc3)nn3ccc(OCCC4CCCCC4)cc23)ccc1=O
Second: COc1cccc(C2C(CN(C)C)CC(=O)N2c2ccccc2)c1 (stereo not given)
The melting point of the first is higher: 146 to 147 °C for the first, 88 to 92 °C for the second.

First: CCCCCCCCCC/C=C\COCc1ccc(CCC(=O)O)cc1
Second: CC(C)C[C@@H](CC=O)NC(=O)[C@H](Cc1c[nH]cn1)NC(=O)[C@H](Cc1cccc2ccccc12)NC(=O)OCc1ccccc1
The melting point of the first is lower: 35 to 36 °C for the first, 153 to 156 °C for the second.

Compared with `CC(C)C[C@H](NCc1ccc(C(C)(C)C)cc1)C(=O)N1CCN(C(c2ccc(F)cc2)c2ccc(F)cc2)CC1`, `O=C(N[C@H](Cc1ccc(C(F)(F)F)cc1)[C@@H](O)c1cccc2ccccc12)c1ccc2ccccc2c1` (racemic) is higher in melting point: 57 to 62 °C for the first, 251 to 252 °C for the second.

First: CC1CN(c2cc3c(cc2F)c(=O)c(C(=O)O)cn3C2CC2)CCN1CCC#N (stereo not given)
Second: CNC1(C)CN(c2cc3c(cc2F)c(=O)c(C(=O)O)cn3C2CC2)C1
The melting point of the first is lower: 203 to 206 °C for the first, > 300 °C for the second.

Compared with `Nc1nc2cc(OCC(=O)N3CCOCC3)ccc2c2c1nc1n2CCOC1`, `Cc1nc2c(N)nc3ccccc3c2n1CCCC1(C)OCCO1` is lower in melting point: 204 to 206 °C for the first, 193 to 195 °C for the second.

First: COCc1ccn2c(C)c(CCc3ccc4nc(N)oc4c3)nc2c1
Second: CCc1noc(C(=NOC)c2ccccc2COc2cc(C)ccc2C)n1
The melting point of the first is higher: 206 to 207 °C for the first, 112 °C for the second.

First: Nc1cc(C(=O)O)ccc1-c1nc(-c2ccc(C(F)(F)F)cc2)no1
Second: O=Cc1cnn2c(-c3cccc(C(F)(F)F)c3)ccnc12
The melting point of the first is higher: > 300 °C for the first, 168 to 170 °C for the second.

First: CN1CC(C(=O)N(C)Cc2ccc(Cl)c(Cl)c2)=C(O)C1=O
Second: CN1CCOc2cc([N+](=O)[O-])ccc2C1=O
The melting point of the first is higher: 148 to 150 °C for the first, 130 to 132 °C for the second.

First: CN1CC(CNC(=O)C(F)(F)F)c2c[nH]c3cccc(c23)C1=O (stereo not given)
Second: CN1C(=O)NC(=O)CC1c1ccccc1 (stereo not given)
The melting point of the first is higher: 174 to 177 °C for the first, 155 to 156 °C for the second.

First: N#CCCn1nc(O)nc1Cl
Second: CCN(CC)CC(O)c1cccc2ccoc12 (stereo not given)
The melting point of the first is higher: 149 to 150 °C for the first, 116 °C for the second.

First: COc1ccc(Cl)cc1NC(=O)[C@H]1[C@H](c2ccc(S(N)(=O)=O)cc2)C1(C)C (relative stereo)
Second: CN(C)S(=O)(=O)c1ccc(Oc2ccc([N+](=O)[O-])cc2)cc1
The melting point of the first is higher: 129 to 133 °C for the first, 116 to 118 °C for the second.

First: CCCc1c(-c2ccncc2)[nH]c(-c2ccncc2)c1C(=O)OCC
Second: CCOC(=O)C1=C(N)NC(C)=CC1c1ccccc1C (stereo not given)
The melting point of the first is higher: 209 to 211 °C for the first, 159 °C for the second.

First: COc1cccc(N(C)C(=O)Oc2ccc(Cl)c(C(C)(C)C)c2)n1
Second: CC(C)(C)OC(=O)Nc1ccc(-c2ccc(-c3ccccc3)cc2)cc1N
The melting point of the first is lower: 54 to 56 °C for the first, 206 to 207 °C for the second.

First: O=c1nc(Cl)cc(-c2ccccc2)n1-c1ccccc1
Second: COc1ccc(-c2cc(NC(=O)Nc3ccc(N(CCCl)CCCl)cc3)c3cc(OC)ccc3n2)cc1
The melting point of the first is higher: 141 to 143 °C for the first, 112 to 113 °C for the second.

First: CN(c1cc(Cl)ncn1)n1cccc1
Second: CCCOc1ccccc1-c1nc2nc(NN)ncc2c(=O)[nH]1
The melting point of the first is lower: 88 to 89 °C for the first, 219 to 220 °C for the second.

Compared with `Cc1ccc(C(=O)C2=C(N)CCCC2)cc1`, `COC(=O)NC(C#N)Cc1ccc(OC)c(OC2CCCC2)c1` (stereo not given) is lower in melting point: 130 to 131 °C for the first, 121 to 122 °C for the second.

First: CC1CC(=O)NN=C1c1ccc(N2CCC(CN)CC2)c([N+](=O)[O-])c1 (stereo not given)
Second: COc1ccc2c(c1)OC[C@@H]1CCCN1C2=O
The melting point of the first is higher: 131 to 132 °C for the first, 104 to 106 °C for the second.

First: C=C(C)C(=O)Nc1ccc(NC(=O)C(=C)C)cc1
Second: CCS(=O)(=O)NCCCCn1c(=O)c2c(C)nc3cccc1n32
The melting point of the first is higher: 254 to 257 °C for the first, 144 to 145 °C for the second.

First: CN1CCC(O)(c2ccc(F)cc2F)C1 (stereo not given)
Second: COc1c(Cl)c(-c2nnc(C)s2)cc2oc(=O)c(C)c(C)c12
The melting point of the first is lower: 117 to 119 °C for the first, 209 to 210 °C for the second.
